Patent publication US10770169B2, “Method of providing a treatment to a subject based on a dynamic pathway map” (THE REGENTS OF THE UNIVERSITY OF CALIFORNIA, priority 2010, dated 2020)

System: panel of 55 breast cancer cell lines
Experiment: Cell growth inhibition assay (Cell Titer Glo, 72 h, 9 doses; GI50, TGI, LC50)
Assay type: cell-based, human
Details: value is the negative log10 of mol/L

With `O=C1NC(=O)/C(=C/c2ccc3nccc(-c4ccncc4)c3c2)S1` [GSK1059615B] the GI50 (cell line 600MPE, censored GI50 values) was 6.31, the GI50 (cell line 600MPE) was 6.31 and the GI50 (cell line AU565, censored GI50 values) was 6.32. The GI50 (cell line AU565) was 6.32, the GI50 (cell line BT474, censored GI50 values) was 6.80 and the GI50 (cell line BT549, censored GI50 values) was 5.73. It also gave a GI50 (cell line CAMA1, censored GI50 values) of 5.77, a GI50 (cell line HCC38, censored GI50 values) of 6.11 and a GI50 (cell line HCC70, censored GI50 values) of 6.75. The GI50 (cell line HCC202, censored GI50 values) was 7.23, the GI50 (cell line HCC1143, censored GI50 values) was 6.26 and the GI50 (cell line HCC1187, censored GI50 values) was 6.48. For the same molecule, the GI50 (cell line HCC1395, censored GI50 values) was 5.61, the GI50 (cell line HCC1419, censored GI50 values) was 6.59 and the GI50 (cell line HCC1428, censored GI50 values) was 6.28. The GI50 (cell line HCC1500, censored GI50 values) was 5.71, the GI50 (cell line HCC1806, censored GI50 values) was 5.82 and the GI50 (cell line HCC1937, censored GI50 values) was 6.09. It also gave a GI50 (cell line HCC1954, censored GI50 values) of 6.63, a GI50 (cell line HCC2185, censored GI50 values) of 6.89 and a GI50 (cell line HCC3153, censored GI50 values) of 5.48. The GI50 (cell line LY2, censored GI50 values) was 5.82, the GI50 (cell line MCF7, censored GI50 values) was 5.53 and the GI50 (cell line MDAMB134VI, censored GI50 values) was 6.25. It also gave a GI50 (cell line MDAMB175VII, censored GI50 values) of 6.18, a GI50 (cell line MDAMB231, censored GI50 values) of 5.21 and a GI50 (cell line MDAMB361, censored GI50 values) of 5.84. It also gave a GI50 (cell line MDAMB436, censored GI50 values) of 5.88, a GI50 (cell line MDAMB453, censored GI50 values) of 6.52 and a GI50 (cell line MDAMB468, censored GI50 values) of 5.96. It also gave a GI50 (cell line SKBR3, censored GI50 values) of 6.71, a GI50 (cell line SUM52PE, censored GI50 values) of 6.89 and a GI50 (cell line SUM149PT, censored GI50 values) of 6.01. For the same molecule, the GI50 (cell line SUM159PT, censored GI50 values) was 6.73, the GI50 (cell line SUM185PE, censored GI50 values) was 7.13 and the GI50 (cell line SUM1315MO2, censored GI50 values) was 6.49. It also gave a GI50 (cell line T47D, censored GI50 values) of 6.58, a GI50 (cell line UACC812, censored GI50 values) of 6.62 and a GI50 (cell line UACC893, censored GI50 values) of 6.89. The GI50 (cell line ZR75B, censored GI50 values) was 6.51, the GI50 (cell line ZR751, censored GI50 values) was 5.87 and the GI50 (cell line ZR7530, censored GI50 values) was 6.82.

For `CC(=O)Nc1cccc(-n2c(=O)n(C3CC3)c(=O)c3c(Nc4ccc(I)cc4F)n(C)c(=O)c(C)c32)c1.C[S+](C)[O-]` [GSK1120212B], the GI50 (600MPE cell line, censored GI50 values) was 8.17, the GI50 (BT549 cell line, censored GI50 values) was 5.17 and the GI50 (HCC70 cell line, censored GI50 values) was 8.18. For the same molecule, the GI50 (HCC202 cell line, censored GI50 values) was 10.23, the GI50 (HCC1395 cell line, censored GI50 values) was 6.71 and the GI50 (HCC1419 cell line, censored GI50 values) was 7.23. It also gave a GI50 (HCC1806 cell line, censored GI50 values) of 5.08, a GI50 (HCC1954 cell line, censored GI50 values) of 6.53 and a GI50 (MDAMB134VI cell line, censored GI50 values) of 7.72. The GI50 (MDAMB175VII cell line, censored GI50 values) was 7.94, the GI50 (MDAMB231 cell line, censored GI50 values) was 6.86 and the GI50 (MDAMB415 cell line, censored GI50 values) was 6.13. For the same molecule, the GI50 (MDAMB453 cell line, censored GI50 values) was 6.61, the GI50 (SUM149PT cell line, censored GI50 values) was 7.51 and the GI50 (SUM159PT cell line, censored GI50 values) was 7.93. The GI50 (SUM1315MO2 cell line, censored GI50 values) was 7.19, the GI50 (cell line 600MPE) was 8.17 and the GI50 (cell line AU565) was 4.82. It also gave a GI50 (cell line BT474) of 4.78, a GI50 (cell line BT483) of 4.78 and a GI50 (cell line BT549) of 5.17. For the same molecule, the GI50 (cell line CAMA1) was 4.78, the GI50 (cell line HCC38) was 4.78 and the GI50 (cell line HCC70) was 8.18. For the same molecule, the GI50 (cell line HCC202) was 10.23, the GI50 (cell line HCC1187) was 4.78 and the GI50 (cell line HCC1395) was 6.71. For the same molecule, the GI50 (cell line HCC1419) was 7.23, the GI50 (cell line HCC1428) was 4.78 and the GI50 (cell line HCC1500) was 4.78. For the same molecule, the GI50 (cell line HCC1806) was 5.08, the GI50 (cell line HCC1937) was 4.78 and the GI50 (cell line HCC1954) was 6.53. The GI50 (cell line HCC2185) was 4.78, the GI50 (cell line HCC3153) was 4.78 and the GI50 (cell line LY2) was 4.78. The GI50 (cell line MCF7) was 4.78, the GI50 (cell line MDAMB134V) was 7.72 and the GI50 (cell line MDAMB157) was 4.78. It also gave a GI50 (cell line MDAMB175V) of 7.94, a GI50 (cell line MDAMB231) of 6.86 and a GI50 (cell line MDAMB361) of 4.78. For the same molecule, the GI50 (cell line MDAMB415) was 6.13, the GI50 (cell line MDAMB436) was 4.81 and the GI50 (cell line MDAMB453) was 6.61. The GI50 (cell line MDAMB468) was 4.85, the GI50 (cell line SKBR3) was 4.78 and the GI50 (cell line SUM52PE) was 5.06. The GI50 (cell line SUM149PT) was 7.51, the GI50 (cell line SUM159PT) was 7.93 and the GI50 (cell line SUM185PE) was 4.78. The GI50 (cell line SUM1315MO) was 7.19, the GI50 (cell line T47D) was 4.78 and the GI50 (cell line UACC812) was 4.78. For the same molecule, the GI50 (cell line UACC893) was 4.81, the GI50 (cell line ZR75B) was 4.78 and the GI50 (cell line ZR751) was 4.78.
